This data set can be described thus: solvent given as SMILES.

Turning to `COC(=O)C(Cc1ccc2oc(-c3ccc(Nc4ccccc4)cc3)nc2c1)NC(=O)OC(C)(C)C` (centres undefined), the fluorescence lifetime amounted to 1.23 ns (in C1CCCCC1); 2.68 ns (in C1CCOC1); 1.83 ns (in C1COCCO1); 2.75 ns (in CC1CCCO1); 1.98 ns (in CC1COC(=O)O1); 2.26 ns (in CC#N). The molecule also yielded a fluorescence lifetime (in CC(C)=O) of 2.96 ns; a fluorescence lifetime (in CC(C)CC(C)(C)C) of 1.01 ns; a fluorescence lifetime (in CC(C)CO) of 2.23 ns; a fluorescence lifetime (in CC(C)O) of 2.43 ns; a fluorescence lifetime (in CC(C)OC(C)C) of 2.48 ns; a fluorescence lifetime (in CC(O)CO) of 0.54 ns. Besides, the fluorescence lifetime reads like this: (in CCC(C)CC) 1.03 ns; (in CCCCC) 1.14 ns; (in CCCCCC) 1.02 ns; (in CCCCCCCCC) 1.06 ns; (in CCCCCCCCCC) 1.09 ns; (in CCCCCCCO) 2.23 ns. The fluorescence lifetime reads like this: (in CCCCCCO) 2.41 ns; (in CCCCCO) 2.89 ns; (in CCCCO) 2 ns; (in CCO) 0.8 ns; (in CCOC(C)=O) 2.46 ns; (in CCOCC) 2.27 ns. In addition, the fluorescence lifetime by setting is: (in CN(C)C=O) 2.45 ns; (in CO) 0.43 ns; (in COCCOC) 0.9 ns; (in CS(C)=O) 1.92 ns; (in Cc1ccccc1) 1.36 ns; (in Cc1ccccc1C) 1.35 ns. Moreover, the fluorescence lifetime reads like this: (in ClC(Cl)Cl) 2.26 ns; (in ClCCl) 3.1 ns; (in NC=O) 1.7 ns; (in OC1CCCCC1) 2.23 ns; (in OCCO) 2.95 ns; (in c1ccccc1) 1.42 ns.

For the setting “in C1CCCCC1”, `Cc1ccc(-c2ccccc2)cc1` returned a fluorescence lifetime of 20 ns.

`[C-]#[N+]c1ccc(-c2ccc(NC)cc2)cc1` returned a fluorescence lifetime (in CC#N) of 1.8 ns and a fluorescence lifetime (in CCOC(C)=O) of 1.4 ns.

For `CN1C(=CC2=C([O-])C(=CC3=[N+](C)c4ccc(Cl)cc4C3(C)C)C2=O)C(C)(C)c2cc(Cl)ccc21`, the fluorescence lifetime came out at 0.21 ns (in CO) and 1.42 ns (in ClC(Cl)Cl).

Consider `COc1ccc2c(c1)CCC1=C(C#Cc3ccc(Cl)cc3)O[B-](F)(F)[O+]=C12`, for which the fluorescence lifetime (in ClCCl) amounted to 2.53 ns.

As for `CC(=O)OC[C@@H]1O[C@H](N2C=CC3=Nc4nc(C)[n+](C)cc4CN3C2=O)[C@@H](O)[C@H]1O`, the fluorescence lifetime is 3.92 ns (in CC#N) and 1.04 ns (in O).

Values taken from the Deep4Chem optical property database.
